# Test results as given in US11071769B2, “Lipo-glycopeptide cleavable derivatives and uses thereof” (Insmed Incorporated, priority 2017, dated 2021).
# Experiments:
# [1] = system: MRSA isolate ATCC BAA-1556; assay: MIC, CLSI-guided broth susceptibility testing, MRSA 1556; type: cell-based, Staphylococcus aureus; settings: for MIC Values, MRSA 1556: MRSA isolate ATCC BAA-1556; for MIC: Staphylococcus aureus, read-out: MIC Values, MRSA 1556
# Protocol: (§1) Compounds of the invention were evaluated for their ability to inhibit bacterial growth in two MRS A strains—MRS A 1556 and MRS A 29213. Table 2 provides MIC concentrations for metabolites of the ester and amide compounds, RV80 (metabolite of RV65 ester) and RV82 (metabolite of RV62 amide). MIC values for vancomycin and telavancin are also provided.
# (§2) MIC Testing: Glycopeptide compounds were dissolved in 100% DMSO. In vitro activities were determined using CLSI-guided broth susceptibility testing to measure drug minimum inhibitory concentrations (MICs) of the compounds against the quality control strain ATCC 29213 (MSSA) and the MRS A isolate ATCC BAA-1556.
# [2] = system: quality control strain ATCC 29213 (MSSA); assay: MIC, CLSI-guided broth susceptibility testing, MSSA 29213; type: cell-based, Staphylococcus aureus; settings: for MIC Values, MSSA 29213: ATCC 29213 (MSSA); for MIC: Staphylococcus aureus, read-out: MIC Values, MSSA 29213
# Protocol: as §1, §2
# [3] = Metabolism (hydrolysis) in rat plasma; type: in vitro ADME; settings: 37° C.; for degradant detected in plasma: 50 μg/mL
# Protocol: RV62 and RV65 were dissolved in 100% DMSO. Stock solutions were diluted using rat plasma to contain less than 1% organic solvent with a final drug concentration of 50 μg/mL. Samples were briefly vortexed and then incubated in a shaker set to 37° C. and 300 rpm. Aliquots were removed at specified time points and store at −80° C. until extraction and analysis. Samples were extracted using a solution of 10% TCA and analyzed using LCMS.
# [4] = Degradation (hydrolysis) in Tris buffer by HPLC; type: physicochemical; settings: 1 mM Tris buffer pH 6.99, 40° C., 72 h
# Protocol: RV62 and RV65 degradation was determined according to the following procedures.
# Compounds were dissolved and diluted with 1 mM Tris buffer (pH 6.99) to achieve a concentration of 54 μg/mL (stock solution). 0.5 mL of stock solution was further diluted with acetonitrile to a total volume of 10 mL. The stock solution was incubated at 40° C., with samples withdrawn at 3, 6, 24, and 72 h and tested by HPLC.
# HPLC method: Samples were injected onto a 100×2.1 mm Waters Cortecs HILIC with a particle size of 1.6 μm. The mobile phase consisted of water (0.1% formic acid) and acetonitrile (0.1% formic acid). The analytic method utilized a gradient from 10% water (0.1% formic acid)/90% acetonitrile (0.1% formic acid) to 70% water (0.1% formic acid)/30% acetonitrile (0.1% formic acid). The HPLC instrument was equipped with a UV detector (280 nm). Compounds were identified by mass.
Structure (SMILES),"MIC Values, MRSA 1556 [1] [µg/mL]","MIC Values, MSSA 29213 [2] [µg/mL]",also measured
CCCCCCCCCC(=O)OCCNC1(C)CC(OC2C(Oc3c4cc5cc3Oc3ccc(cc3Cl)C(O)C3NC(=O)C(NC(=O)C5NC(=O)C(CC(N)=O)NC(=O)C(NC(=O)C(CC(C)C)NC)C(O)c5ccc(c(Cl)c5)O4)c4ccc(O)c(c4)-c4c(O)cc(O)cc4C(C(=O)O)NC3=O)OC(CO)C(O)C2O)OC(C)C1O (centres unmarked) [RV54],0.167,0.146,–
CCCCCCCCCC(=O)NCCNC1(C)CC(OC2C(Oc3c4cc5cc3Oc3ccc(cc3Cl)C(O)C3NC(=O)C(NC(=O)C5NC(=O)C(CC(N)=O)NC(=O)C(NC(=O)C(CC(C)C)NC)C(O)c5ccc(c(Cl)c5)O4)c4ccc(O)c(c4)-c4c(O)cc(O)cc4C(C(=O)O)NC3=O)OC(CO)C(O)C2O)OC(C)C1O (centres unmarked) [RV56],0.063,0.063,–
CCCCCCCCCCCC(=O)NCCNC1(C)CC(OC2C(Oc3c4cc5cc3Oc3ccc(cc3Cl)C(O)C3NC(=O)C(NC(=O)C5NC(=O)C(CC(N)=O)NC(=O)C(NC(=O)C(CC(C)C)NC)C(O)c5ccc(c(Cl)c5)O4)c4ccc(O)c(c4)-c4c(O)cc(O)cc4C(C(=O)O)NC3=O)OC(CO)C(O)C2O)OC(C)C1O (centres unmarked) [RV62],0.023,0.023,"degradant detected in plasma ([3]; 24 h incubation): 6%; fold more efficacious than RV65 (MIC) ([1]; compared with RV65, the ester with the lowest measured MIC, Table 1, both strains): about 3 ×"
CCCCCCCCCCCC(=O)OCCNC1(C)CC(OC2C(Oc3c4cc5cc3Oc3ccc(cc3Cl)C(O)C3NC(=O)C(NC(=O)C5NC(=O)C(CC(N)=O)NC(=O)C(NC(=O)C(CC(C)C)NC)C(O)c5ccc(c(Cl)c5)O4)c4ccc(O)c(c4)-c4c(O)cc(O)cc4C(C(=O)O)NC3=O)OC(CO)C(O)C2O)OC(C)C1O (centres unmarked) [RV65],0.094,0.063,"degradant detected in plasma ([3]; 6 h incubation): ~90%; metabolism in plasma compared to RV62 ([3]; over 24 h): metabolized faster; peak area for the cleaved glycopeptide, of the total [4]: about 42%"
CNC(CC(C)C)C(=O)NC1C(=O)NC(CC(N)=O)C(=O)NC2C(=O)NC3C(=O)NC(C(=O)NC(C(=O)O)c4cc(O)cc(O)c4-c4cc3ccc4O)C(O)c3ccc(c(Cl)c3)Oc3cc2cc(c3OC2OC(CO)C(O)C(O)C2OC2CC(C)(NCCO)C(O)C(C)O2)Oc2ccc(cc2Cl)C1O (centres unmarked) [RV80],1,1,–
CN[C@H](CC(C)C)C(=O)N[C@H]1C(=O)N[C@@H](CC(N)=O)C(=O)N[C@H]2C(=O)N[C@H]3C(=O)N[C@H](C(=O)N[C@@H](C(=O)O)c4cc(O)cc(O)c4-c4cc3ccc4O)[C@H](O)c3ccc(c(Cl)c3)Oc3cc2cc(c3O[C@@H]2O[C@H](CO)[C@@H](O)[C@H](O)[C@H]2O[C@H]2C[C@](C)(NCCN)[C@H](O)[C@H](C)O2)Oc2ccc(cc2Cl)[C@H]1O [RV82],–,–,MIC [1]: 3 µg/mL; MIC [2]: 3 µg/mL
CCCCCCCCCCCCCCCC(=O)OCCNC1(C)CC(OC2C(Oc3c4cc5cc3Oc3ccc(cc3Cl)C(O)C3NC(=O)C(NC(=O)C5NC(=O)C(CC(N)=O)NC(=O)C(NC(=O)C(CC(C)C)NC)C(O)c5ccc(c(Cl)c5)O4)c4ccc(O)c(c4)-c4c(O)cc(O)cc4C(C(=O)O)NC3=O)OC(CO)C(O)C2O)OC(C)C1O (centres unmarked) [RV89],1.000,0.500,–
CCCCCCCC(=O)OCCNC1(C)CC(OC2C(Oc3c4cc5cc3Oc3ccc(cc3Cl)C(O)C3NC(=O)C(NC(=O)C5NC(=O)C(CC(N)=O)NC(=O)C(NC(=O)C(CC(C)C)NC)C(O)c5ccc(c(Cl)c5)O4)c4ccc(O)c(c4)-c4c(O)cc(O)cc4C(C(=O)O)NC3=O)OC(CO)C(O)C2O)OC(C)C1O (centres unmarked) [RV90],0.250,0.250,–
CCCCCCCCCCCCCCCC(=O)NCCNC1(C)CC(OC2C(Oc3c4cc5cc3Oc3ccc(cc3Cl)C(O)C3NC(=O)C(NC(=O)C5NC(=O)C(CC(N)=O)NC(=O)C(NC(=O)C(CC(C)C)NC)C(O)c5ccc(c(Cl)c5)O4)c4ccc(O)c(c4)-c4c(O)cc(O)cc4C(C(=O)O)NC3=O)OC(CO)C(O)C2O)OC(C)C1O (centres unmarked) [RV91],0.250,0.188,–
CCCCCCCC(=O)NCCNC1(C)CC(OC2C(Oc3c4cc5cc3Oc3ccc(cc3Cl)C(O)C3NC(=O)C(NC(=O)C5NC(=O)C(CC(N)=O)NC(=O)C(NC(=O)C(CC(C)C)NC)C(O)c5ccc(c(Cl)c5)O4)c4ccc(O)c(c4)-c4c(O)cc(O)cc4C(C(=O)O)NC3=O)OC(CO)C(O)C2O)OC(C)C1O (centres unmarked) [RV93],0.125,0.125,–
CCCCCCCCCCCCNC(=O)CNC1(C)CC(OC2C(Oc3c4cc5cc3Oc3ccc(cc3Cl)C(O)C3NC(=O)C(NC(=O)C5NC(=O)C(CC(N)=O)NC(=O)C(NC(=O)C(CC(C)C)NC)C(O)c5ccc(c(Cl)c5)O4)c4ccc(O)c(c4)-c4c(O)cc(O)cc4C(C(=O)O)NC3=O)OC(CO)C(O)C2O)OC(C)C1O (centres unmarked) [RV95],0.031,0.031,–
"CCCCCCCCCCNCCN[C@@]1(C)C[C@H](O[C@H]2[C@H](Oc3c4cc5cc3Oc3ccc(cc3Cl)[C@@H](O)[C@@H](NC(=O)[C@@H](CC(C)C)NC)C(=O)N[C@@H](CC(N)=O)C(=O)N[C@H]5C(=O)N[C@H]3C(=O)N[C@H](C(=O)N[C@H](C(=O)O)c5cc(O)c(CNCP(=O)(O)O)c(O)c5-c5cc3ccc5O)[C@H](O)c3ccc(c(Cl)c3)O4)O[C@H](CO)[C@@H](O)[C@@H]2O)O[C@@H](C)[C@H]1O [Telavancin, telavancin, reference compound]",–,–,MIC [1]: 0.063 µg/mL; MIC [2]: 0.063 µg/mL
